Legend:
hiPSK3-derived EBs = assay: Neural patterning, immunocytochemistry marker quantification; assay type: cell-based, human; settings: day 42 cells, CHIR 3 μM added to purmorphamine/FGF-2/RA
Method: Cells were analyzed using phase contrast microscopy, as described in Example 1 or immunohistochemistry. […] After washing, the cells were incubated with the corresponding secondary antibody: Alexa Fluor® 488 goat anti-Mouse IgG, Alexa Fluor® 488 or 594 goat anti-Rabbit IgG, or Alexa Fluor® 594 donkey anti-goat IgG (Life Technologies). The samples were stained with Hoechst 33342 and visualized under a fluorescent microscope (Olympus IX70, Melville, N.Y.). The images from five independent fields (800-1000 cells) were analyzed using ImageJ software. The proportion of positive cells was calculated based on the intensity of marker of interest normalized to the nuclear intensity, indicating the relative expression among different conditions. A neuronal model was prepared using LDN/SB induction, as discussed in Example 2. Neural patterning of hiPSCs was tuned through treatment with cyclopamine (the antagonist of SHH signaling) or purmorphamine (the agonist of SHH signaling) (Stanton & Peng, Small-molecule modulators of the Sonic Hedgehog signaling pathway, Mol Biosyst, 6 (2010) 44-54). […] After 8 days, the cells were treated with different growth factor combinations: […] (3) FGF-2 (10 ng/mL) and cyclopamine (1 μM, Sigma). […]

[1] = tested on: neural cells derived from human iPSK3 cells; assay: Aβ1-42 oligomer-induced response in presence of GSK-3β inhibitor CHIR99021 (MTT, ROS, caspase); assay type: cell-based; settings: CH 10 μM with 1 μM Aβ1-42 oligomers, day 46 cells
Description: The cells were subsequently characterized by MTT, ROS, and poly caspase assays (Yan, et al., Cryopreservation of embryonic stem cell-derived multicellular neural aggregates labeled with micron-sized particles of iron oxide for magnetic resonance imaging, Biotechnol Prog, 31 (2015) 510-521; Sart, et al., The microenvironment of embryoid bodies modulated the commitment to neural lineage post-cryopreservation, Tissue Eng Part C: Methods., 21 (2015) 356-366). To evaluate the influence of glycogen synthase kinase (GSK)-3p inhibitor, CHIR99021 (1 or 10 μM) was added to the cultures treated with 1 μM Aβ1-42 oligomers for three days and characterized.
(§1) Briefly, the replated neural cells were incubated with 5 mg/mL 3-(4,5-Dimethylthiazol-2-yl)-2,5-diphenyltetrazolium bromide (MTT, Sigma) solution. The absorbance was measured at 500 nm using a microplate reader (Biorad, Richmond, Calif.). Image-iT™ Live Green Reactive Oxygen Species Detection kit (Molecular Probes) was used to detect the intracellular ROS. Briefly, neural cells were seeded at 1×10^5/mL in 96-well plates (100 μL). After 3 days, the cells were rinsed with Hank's balanced salt solution and incubated with 25 μM carboxy-H2DCFDA for 30 min at 37° C. The samples were washed and measured under a fluorescence microplate reader using 488 nm excitation wavelength and 530 nm for emission (Bio-Tek, FLx800, Winoosk, Vt.). Image-iT™ Live Green Poly Caspase Detection kit (Molecular Probes) was used to detect the expression of caspases. The replated cells were incubated for one hour with the fluorescent inhibitor of caspases reagent and analyzed by a fluorescence microplate reader.

[2] = tested on: hiPSC-derived neural cells; assay: NMDA-induced neurotoxicity (MTT, ROS, poly caspase); assay type: cell-based, human
Method: (§2) The hiPSC-derived neural cells were tested to determine response to different drugs and small molecules. Neural cells were formed as described in Example 2. After differentiation, the derived neural cells were replated onto Geltrex-coated 96-well plate and treated with N-methyl-D-aspartate (NMDA) at 0, 0.05, 0.5, 1 mM to mimic general neural toxicity. Cells were tested to determine response to neural protective molecules. Carbenoxolone (Cx, Sigma) (Beraki, et al., A pharmacological screening approach for discovery of neuroprotective compounds in ischemic stroke, PLoS One, 8 (2013) e69233) was added at different doses (0, 10 µM, 50 µM) of Cx were added with 0.5 mM NMDA for the first 24 h. Then samples were washed with phosphate buffer and the same doses of Cx were added for another 24 h. The cells were then characterized by MTT, reactive oxygen species (ROS), and poly caspase assays.
as §1

[3] = tested on: neuronal cells derived from hiPSK3 cells; assay: MMP-2/-9 inhibitor effects: neurite density, MTT, cell counting; assay type: cell-based, human; settings: phase contrast, 1 μM
Method: Derived neural cells, as described above, were replated onto Geltrex-coated 96-well plate and treated with MMP inhibitors: ARP 100 (MMP-2 inhibitor), MMP-9 inhibitor I, or SB-3CT (MMP-2 and MMP-9 inhibitor) (all from Santa Cruz) at 1 μM.
The cells were then characterized by MTT, reactive oxygen species (ROS), and poly caspase assays. For some experiments, cell numbers were counted using hemocytometer after trypsin/EDTA dissociation.
as §1, with “Image-iT™ Live Green Poly Caspase Detection kit (Molecular Probes) was used to detect the expression of caspases.” left out

[4] = tested on: hiPSC-derived neural cells; assay: Carbenoxolone neuroprotection from NMDA-induced neurotoxicity (MTT, ROS, poly caspase); assay type: cell-based, human
Method: as §2, §1

In the case of `Cc1c[nH]c(-c2cnc(NCCNc3ccc(C#N)cn3)nc2-c2ccc(Cl)cc2Cl)n1` [CHIR99021], the “expression of ISL1 and HB9 (motor neuron differentiation)” value (hiPSK3-derived EBs) is reported as “increased”, the ROS levels [1] is reported as “reduced” and the caspase levels [1] is reported as “reduced”. The “increase of MTT activity” value ([1]; vs. groups without CH or with 1 μM CH) was 25-45%.
With `CN[C@H](CC(=O)O)C(=O)O` [NMDA, N-methyl-D-aspartate] the caspase activity ([2]; NMDA 0-1 mM) was “logarithmic relationship with NMDA concentration”, the “expression of ROS” value ([2]; NMDA 0-1 mM) was “increased logarithmically” and the “reduction of MTT activity” value ([2]; NMDA 0.5 or 1 mM, all three groups (control, Purmo, Cyclo)) was 30-50%.
`O=S(=O)(CC1CS1)c1ccc(Oc2ccccc2)cc1` (stereo not drawn) [SB-3CT] was tested, and the neurite density ([3]; Cyclo group (more cortical glutamatergic neurons)) was “little changes” and the neurite density ([3]; Purmo group (more motor neurons)) was “reduction of neurite density”.
For `CC1(C)[C@@H](OC(=O)CCC(=O)O)CC[C@]2(C)[C@H]3C(=O)C=C4[C@@H]5C[C@@](C)(C(=O)O)CC[C@]5(C)CC[C@@]4(C)[C@]3(C)CC[C@@H]12` [carbenoxolone, Carbenoxolone], the “increase in MTT activity” value ([4]; carbenoxolone 10 or 50 μM with 0.5 mM NMDA) was 28-56%, the “expression of ROS” value ([4]; carbenoxolone with 0.5 mM NMDA) was “reduced expression of ROS” and the caspase activity ([4]; carbenoxolone with 0.5 mM NMDA, all three groups) was “decreased”.

Reference: patent US10323229B1, “Three-dimensional human stem cell-derived cortical spheroid model” (The Florida State University Research Foundation, Inc., priority 2015, dated 2019)
